Literature values in US6071923A, “Retinoyloxy aryl-substituted alkylene butyrates useful for the treatment of cancer and other proliferative diseases” (Bar-Ilan University, priority 1997, dated 2000).
Where “and” joins values, the source holds several entries; their conditions need not be identical. Identical values can stand only once. Like-named read-outs stand apart in the source and are kept apart here.

Tested on: HL-60 cells
[1] = HL-60 human promyelocytic cell line, agent alone, read-out: ED50, induction of differentiation of HL-60 cells, agent alone

| EC50 (HL-60 cells, BA combined with about 28 nM RA, read-out: ED50 value for BA in combination with RA) [µM] | SMILES | EC50 [1] | dose reduction index value (HL-60 cells, BA ED50 alone versus with about 28 nM RA) |
| --- | --- | --- | --- |
|  | CC1=C(/C=C/C(C)=C/C=C/C(C)=C/C(=O)O)C(C)(C)CCC1 [RA, retinoic acid] | 0.13 µM |  |
| ~75 | CCCC(=O)O [BA, Butyric acid] | 444 µM and ~400 µM | about 6 fold |
